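How tested: cells in 96-well plates exposed to compound for 48 hours at five concentrations. GI50: concentration for 50% inhibition of growth.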 Calls of active or inactive are those of the source. Cut-off read from the data, not from the text of the source: active = GI50 up to about 1.1 µM and inactive = higher.
How the values were obtained:
Assay in all cases: NCI-60 cell line screen, 48 h
SN12C = system: SN12C
SNB-19 = system: SNB-19
SF-539 = system: SF-539
M14 = system: M14
NCI-H226 = system: NCI-H226
Malme-3M = system: Malme-3M
CCRF-CEM = system: CCRF-CEM
HT-29 = system: HT-29
UACC-257 = system: UACC-257
OVCAR-8 = system: OVCAR-8
CAKI-1 = system: CAKI-1
A498 = system: A498
COLO 205 = system: COLO 205
EKVX = system: EKVX
UACC-62 = system: UACC-62
RXF 393 = system: RXF 393
SK-MEL-2 = system: SK-MEL-2
HCT-15 = system: HCT-15

Structure (SMILES) | GI50 (SN12C) | GI50 (SNB-19) | GI50 (SF-539) | GI50 (M14) | GI50 (NCI-H226) | GI50 (Malme-3M) | GI50 (CCRF-CEM) | GI50 (HT-29) | GI50 (UACC-257) | GI50 (OVCAR-8) | GI50 (CAKI-1) | GI50 (A498) | GI50 (COLO 205) | GI50 (EKVX) | GI50 (UACC-62) | GI50 (RXF 393) | GI50 (SK-MEL-2) | GI50 (HCT-15)
Cc1c(C(=O)/C=C/c2ccc([N+](=O)[O-])cc2)[n+]([O-])c2ccccc2[n+]1[O-] | > 100 µM (inactive) | > 100 µM (inactive) | 49.1 µM (inactive) | > 100 µM (inactive) | > 100 µM (inactive) | > 100 µM (inactive) | 20.9 µM (inactive) | 96.6 µM (inactive) | > 100 µM (inactive) | 55.3 µM (inactive) | 64.7 µM (inactive) | > 100 µM (inactive) | > 100 µM (inactive) | > 100 µM (inactive) | 41.7 µM (inactive) | 29.1 µM (inactive) | – | –
COC(=O)[C@@]1(C)/C(=N/NS(=O)(=O)c2ccc(C)cc2)CCC[C@@H]1C | > 100 µM (inactive) | > 100 µM (inactive) | 88.3 µM (inactive) | > 100 µM (inactive) | > 100 µM (inactive) | > 100 µM (inactive) | 27.8 µM (inactive) | > 100 µM (inactive) | > 100 µM (inactive) | > 100 µM (inactive) | > 100 µM (inactive) | > 100 µM (inactive) | 69.2 µM (inactive) | > 100 µM (inactive) | > 100 µM (inactive) | > 100 µM (inactive) | > 100 µM (inactive) | 16.3 µM
NCCCCNc1ccc2c(=O)[nH][nH]c(=O)c2c1 | > 100 µM (inactive) | > 100 µM (inactive) | > 100 µM (inactive) | > 100 µM (inactive) | > 100 µM (inactive) | > 100 µM (inactive) | > 100 µM (inactive) | > 100 µM (inactive) | > 100 µM (inactive) | > 100 µM (inactive) | > 100 µM (inactive) | > 100 µM (inactive) | > 100 µM (inactive) | > 100 µM (inactive) | > 100 µM (inactive) | > 100 µM (inactive) | > 100 µM (inactive) | –
CCc1nc(N)nc(C(=O)NCCNC(=O)c2nc(N)nc(CC)c2C)c1C | > 100 µM (inactive) | > 100 µM (inactive) | > 100 µM (inactive) | > 100 µM (inactive) | > 100 µM (inactive) | > 100 µM (inactive) | – | > 100 µM (inactive) | > 100 µM (inactive) | > 100 µM (inactive) | > 100 µM (inactive) | > 100 µM (inactive) | – | > 100 µM (inactive) | > 100 µM (inactive) | > 100 µM (inactive) | > 100 µM (inactive) | > 100 µM
COc1ccc2nc(NC(=O)C(=O)C(C#N)c3ccc([N+](=O)[O-])cc3)sc2c1 (configuration not stated) | > 100 µM (inactive) | > 100 µM (inactive) | > 100 µM (inactive) | > 100 µM (inactive) | > 100 µM (inactive) | > 100 µM (inactive) | – | > 100 µM (inactive) | > 100 µM (inactive) | > 100 µM (inactive) | > 100 µM (inactive) | – | > 100 µM (inactive) | 31.9 µM (inactive) | 46 µM (inactive) | > 100 µM (inactive) | > 100 µM (inactive) | > 100 µM
CC(CCC(=O)O)c1ccc(Br)cc1 (configuration not stated) | > 100 µM (inactive) | > 100 µM (inactive) | – | > 100 µM (inactive) | > 100 µM (inactive) | > 100 µM (inactive) | > 100 µM (inactive) | > 100 µM (inactive) | > 100 µM (inactive) | > 100 µM (inactive) | > 100 µM (inactive) | – | > 100 µM (inactive) | > 100 µM (inactive) | > 100 µM (inactive) | > 100 µM (inactive) | > 100 µM (inactive) | > 100 µM
CC(C)C(Nc1c2ccccc2[n+](C)c2ccccc12)C(=O)O (configuration not stated) | > 100 µM (inactive) | > 100 µM (inactive) | > 100 µM (inactive) | > 100 µM (inactive) | > 100 µM (inactive) | > 100 µM (inactive) | – | > 100 µM (inactive) | > 100 µM (inactive) | > 100 µM (inactive) | > 100 µM (inactive) | > 100 µM (inactive) | > 100 µM (inactive) | > 100 µM (inactive) | > 100 µM (inactive) | > 100 µM (inactive) | > 100 µM (inactive) | > 100 µM
NC(=S)N1N=C2c3ccccc3CC[C@H]2[C@@H]1c1cccs1 | 39.3 µM (inactive) | 75.7 µM (inactive) | 43.2 µM (inactive) | 22 µM (inactive) | 29 µM (inactive) | 19.2 µM (inactive) | 18.8 µM (inactive) | 24.1 µM (inactive) | 28 µM (inactive) | 32.7 µM (inactive) | – | 60.3 µM (inactive) | 16.5 µM (inactive) | 38.4 µM (inactive) | 33.7 µM (inactive) | 16.8 µM (inactive) | 22.1 µM (inactive) | 21.3 µM
CCOC(C[C@H](O[Si](C)(C)C(C)(C)C)[C@H]1COC(=S)S1)OCC | 55.8 µM (inactive) | 28.8 µM (inactive) | 33.6 µM (inactive) | 52.1 µM (inactive) | 85.1 µM (inactive) | > 100 µM (inactive) | 34.9 µM (inactive) | 14.5 µM (inactive) | 35 µM (inactive) | 66.5 µM (inactive) | – | – | 66.1 µM (inactive) | > 100 µM (inactive) | – | – | – | 55.1 µM
O=C(CN1CCOCC1)Nc1nc(-c2ccc(Cl)cc2)cs1 | 34.3 µM (inactive) | 39.1 µM (inactive) | 44.4 µM (inactive) | 32.2 µM (inactive) | 24 µM (inactive) | 23.1 µM (inactive) | 21.3 µM (inactive) | 36.1 µM (inactive) | – | 23.8 µM (inactive) | 34.4 µM (inactive) | 23.1 µM (inactive) | 31.9 µM (inactive) | 75.2 µM (inactive) | 20 µM (inactive) | – | 26.5 µM (inactive) | 29.4 µM
CC(=O)c1ccccc1NC(=O)C(=O)C(C(=O)c1ccc2ccccc2c1)C1OC(=O)c2ccccc21 (configuration not stated) | 13.7 µM (inactive) | 4.73 µM (inactive) | 4.72 µM (inactive) | 16.4 µM (inactive) | 2.26 µM (inactive) | 3.7 µM (inactive) | 4.42 µM (inactive) | 34.8 µM (inactive) | 13.8 µM (inactive) | 11.6 µM (inactive) | 10.6 µM (inactive) | 15.2 µM (inactive) | 14.9 µM (inactive) | 97.9 µM (inactive) | 13 µM (inactive) | – | 10.2 µM (inactive) | 13.7 µM
CCCC[C@H](CCc1ccccc1)N(C(=O)OC)N1CCC[C@H]1COC | 17.9 µM (inactive) | 16.4 µM (inactive) | 18 µM (inactive) | 26 µM (inactive) | 20.2 µM (inactive) | 16.3 µM (inactive) | 15.5 µM (inactive) | 15.1 µM (inactive) | 18 µM (inactive) | 27.5 µM (inactive) | 29.9 µM (inactive) | 18.1 µM (inactive) | 16.3 µM (inactive) | 17.5 µM (inactive) | 16 µM (inactive) | 18.1 µM (inactive) | 18.5 µM (inactive) | –
Cc1c2cc[n+](C)cc2c(C)c2c1[nH]c1ccc(Oc3ccccc3)cc12 | 0.303 µM (active) | 0.506 µM (active) | 1.26 µM (inactive) | 4.37 µM (inactive) | 0.544 µM (active) | 1.71 µM (inactive) | 1.38 µM (inactive) | 0.843 µM (active) | 1.28 µM (inactive) | 0.605 µM (active) | 2.12 µM (inactive) | – | 0.845 µM (active) | 3.08 µM (inactive) | 1.43 µM (inactive) | – | 0.832 µM (active) | 4.69 µM
CCCc1nc(N)nc(C(=O)Nc2cccc(C(F)(F)F)c2)c1CC | > 100 µM (inactive) | > 100 µM (inactive) | > 100 µM (inactive) | > 100 µM (inactive) | > 100 µM (inactive) | > 100 µM (inactive) | – | > 100 µM (inactive) | > 100 µM (inactive) | > 100 µM (inactive) | > 100 µM (inactive) | > 100 µM (inactive) | – | > 100 µM (inactive) | > 100 µM (inactive) | > 100 µM (inactive) | > 100 µM (inactive) | > 100 µM
CCCCC(N)CSSCC(N)CCCC (configuration not stated) | 19.5 µM (inactive) | 58.5 µM (inactive) | 23.7 µM (inactive) | 17.9 µM (inactive) | 23.5 µM (inactive) | 18.1 µM (inactive) | 20.3 µM (inactive) | 23.7 µM (inactive) | 20.5 µM (inactive) | 37.8 µM (inactive) | – | 25.8 µM (inactive) | 52.7 µM (inactive) | 25.2 µM (inactive) | 21.1 µM (inactive) | – | 17.2 µM (inactive) | 26.2 µM
O=S(=O)(c1ccccc1)n1cc(C[P+](c2ccccc2)(c2ccccc2)c2ccccc2)c2ccccc21 | 5.69 µM (inactive) | 2.61 µM (inactive) | 4.59 µM (inactive) | 2.64 µM (inactive) | 4.81 µM (inactive) | 4.38 µM (inactive) | 2.43 µM (inactive) | 3.4 µM (inactive) | – | 2.81 µM (inactive) | 13.9 µM (inactive) | 15.6 µM (inactive) | 1.99 µM (inactive) | 3.33 µM (inactive) | 5.12 µM (inactive) | 6.35 µM (inactive) | 2.3 µM (inactive) | 16.6 µM
CCN(CC)c1oc(N(CC)CC)c(C(=O)Nc2ccccn2)c(=O)c1C(C)=O | > 100 µM (inactive) | > 100 µM (inactive) | > 100 µM (inactive) | > 100 µM (inactive) | > 100 µM (inactive) | > 100 µM (inactive) | > 100 µM (inactive) | > 100 µM (inactive) | – | > 100 µM (inactive) | > 100 µM (inactive) | > 100 µM (inactive) | > 100 µM (inactive) | > 100 µM (inactive) | > 100 µM (inactive) | – | > 100 µM (inactive) | > 100 µM
